Target: T1, DENVC (dengue virus capsid protein) (Dengue virus 2 Thailand/NGS-C/1944, UniProt P14340)
T1 construct: mature capsid protein C from the N-terminus of the dengue virus genome polyprotein; pET3a, E. coli BL21(DE3)pLysS, heparin column; symmetric homodimer; printed residues reach R100
Test: intrinsic tryptophan fluorescence titration, shift of emission maximum
Format: binding

T1 sequence (P14340 1-100): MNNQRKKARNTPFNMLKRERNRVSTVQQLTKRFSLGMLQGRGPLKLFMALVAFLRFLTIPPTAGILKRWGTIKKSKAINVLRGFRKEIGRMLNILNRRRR

SMILES	Kd
N=C(N)NN=Cc1cc(Cl)ccc1O [compound 1, 5-chloro-salicylaldehyde-guanylhydrazone]	18 ± 4 µM
N=C(N)N/N=C/c1ccc(Br)s1 [compound 4, 5-bromo-thiophene-2-guanylhydrazone]	20 ± 7 µM
O/N=C/c1cc(Cl)ccc1O [compound 12, 2-hydroxy-5-chloro-benzyloxime]	23 ± 8 µM
